In data set [1] the target is T1, Phospho-EGFR (Tyr1068) in H1975 C797S cells (CRISPR-edited EGFR C797S) (Homo sapiens, UniProt P00533, C797S/L858R/T790M).
T1 construct: host or cells: H1975 C797S (CRISPR-edited)
As to the kind of experiment: HTRF pEGFR/total EGFR in H1975 C797S cells. In kind it is cell-based. As to conditions: ratio pEGFR/total EGFR, compound 3 hours. The procedure, abridged: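 Readout is the HTRF-measured Tyr1068 phospho-EGFR to total EGFR ratio, normalised to the 0 μM control as percent. Preceding this, CRISPR-edited H1975 C797S cells, plated 24 h earlier, were exposed 3 h to duplicate compound doses in medium with 0.1% DMSO, then lysed on a shaker.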
In general terms: TR-FRET usually uses a lanthanide donor and a delayed reading to cut background.

Data set [2] has as its target T2, Phospho-EGFR (Tyr1068) in H1975 cells (Homo sapiens, UniProt P00533, L858R/T790M).
T2 construct: host or cells: H1975
As to the kind of experiment: HTRF pEGFR/total EGFR in H1975 cells. In kind it is cell-based. As to conditions: ratio pEGFR/total EGFR, compound 3 hours. In a few lines:
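Readout is the phospho-EGFR (Tyr1068) to total EGFR HTRF ratio, expressed relative to 0 μM control. Adhered H1975 cells were exposed to compound for 3 hours at 0.1% DMSO, duplicate wells, then lysed for 30 min at room temperature before two-wavelength fluorescence reading.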

Data set [3] concerns the target CtermHisTag-mEGFR Wild type (Homo sapiens, UniProt P00533). As to the kind of experiment: biochemical.
The target of data set [4] is T3, Phospho-EGFR (Tyr1068) in A431 cells (Homo sapiens, UniProt P00533).
T3 construct: endogenous in cells; host or cells: A431
T3 sequence (P00533 25-1210): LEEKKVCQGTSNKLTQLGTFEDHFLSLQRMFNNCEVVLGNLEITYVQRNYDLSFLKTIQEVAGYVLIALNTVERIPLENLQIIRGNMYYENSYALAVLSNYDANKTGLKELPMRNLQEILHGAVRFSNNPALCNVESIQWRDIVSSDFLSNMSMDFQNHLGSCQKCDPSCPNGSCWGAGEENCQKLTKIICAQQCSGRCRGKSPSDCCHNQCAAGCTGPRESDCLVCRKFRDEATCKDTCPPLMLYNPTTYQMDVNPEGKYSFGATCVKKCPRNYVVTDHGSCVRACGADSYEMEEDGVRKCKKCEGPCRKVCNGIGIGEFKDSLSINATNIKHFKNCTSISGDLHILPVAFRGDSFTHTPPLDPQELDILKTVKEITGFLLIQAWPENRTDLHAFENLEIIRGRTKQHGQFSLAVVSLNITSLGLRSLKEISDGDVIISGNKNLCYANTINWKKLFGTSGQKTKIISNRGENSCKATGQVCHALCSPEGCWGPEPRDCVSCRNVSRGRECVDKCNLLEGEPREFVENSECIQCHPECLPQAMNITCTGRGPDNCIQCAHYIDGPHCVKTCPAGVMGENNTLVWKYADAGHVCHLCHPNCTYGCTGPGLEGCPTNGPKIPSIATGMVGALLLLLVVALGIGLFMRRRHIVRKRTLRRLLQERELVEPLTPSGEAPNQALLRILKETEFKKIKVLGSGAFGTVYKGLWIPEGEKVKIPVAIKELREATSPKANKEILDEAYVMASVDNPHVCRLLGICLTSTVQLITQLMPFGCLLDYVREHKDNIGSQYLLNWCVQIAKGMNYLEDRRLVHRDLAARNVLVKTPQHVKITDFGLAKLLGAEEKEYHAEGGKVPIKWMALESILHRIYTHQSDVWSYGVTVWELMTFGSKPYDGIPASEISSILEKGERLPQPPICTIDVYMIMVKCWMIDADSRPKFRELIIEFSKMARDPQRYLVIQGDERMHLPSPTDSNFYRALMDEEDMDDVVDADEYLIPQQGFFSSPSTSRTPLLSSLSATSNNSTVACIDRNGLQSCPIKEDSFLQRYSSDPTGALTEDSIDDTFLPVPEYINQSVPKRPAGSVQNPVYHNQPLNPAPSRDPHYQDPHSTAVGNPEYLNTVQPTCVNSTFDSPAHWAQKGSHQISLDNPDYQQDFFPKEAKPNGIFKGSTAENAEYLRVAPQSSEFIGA
The data set is described as follows: HTRF pEGFR/total EGFR in A431 cells with EGF stimulation. The class given is cell-based. As to conditions: ratio pEGFR/total EGFR, compound 2.5 hours then 100 ng/ml EGF 30 mins. The procedure, abridged: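 Values are pEGFR(Tyr1068)/total EGFR HTRF ratios (665/620 nm) given as percent of the 0 μM control. Adhered A431 cells (20,000 per well, 24 h) had 2.5 h compound pretreatment in 0.1% DMSO, then 30 min of 100 ng/ml EGF before lysis.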

Where two headings read alike, the source gives them in different places.

CtermHisTag-mEGFR Wild type, sequence (P00533 whole entry): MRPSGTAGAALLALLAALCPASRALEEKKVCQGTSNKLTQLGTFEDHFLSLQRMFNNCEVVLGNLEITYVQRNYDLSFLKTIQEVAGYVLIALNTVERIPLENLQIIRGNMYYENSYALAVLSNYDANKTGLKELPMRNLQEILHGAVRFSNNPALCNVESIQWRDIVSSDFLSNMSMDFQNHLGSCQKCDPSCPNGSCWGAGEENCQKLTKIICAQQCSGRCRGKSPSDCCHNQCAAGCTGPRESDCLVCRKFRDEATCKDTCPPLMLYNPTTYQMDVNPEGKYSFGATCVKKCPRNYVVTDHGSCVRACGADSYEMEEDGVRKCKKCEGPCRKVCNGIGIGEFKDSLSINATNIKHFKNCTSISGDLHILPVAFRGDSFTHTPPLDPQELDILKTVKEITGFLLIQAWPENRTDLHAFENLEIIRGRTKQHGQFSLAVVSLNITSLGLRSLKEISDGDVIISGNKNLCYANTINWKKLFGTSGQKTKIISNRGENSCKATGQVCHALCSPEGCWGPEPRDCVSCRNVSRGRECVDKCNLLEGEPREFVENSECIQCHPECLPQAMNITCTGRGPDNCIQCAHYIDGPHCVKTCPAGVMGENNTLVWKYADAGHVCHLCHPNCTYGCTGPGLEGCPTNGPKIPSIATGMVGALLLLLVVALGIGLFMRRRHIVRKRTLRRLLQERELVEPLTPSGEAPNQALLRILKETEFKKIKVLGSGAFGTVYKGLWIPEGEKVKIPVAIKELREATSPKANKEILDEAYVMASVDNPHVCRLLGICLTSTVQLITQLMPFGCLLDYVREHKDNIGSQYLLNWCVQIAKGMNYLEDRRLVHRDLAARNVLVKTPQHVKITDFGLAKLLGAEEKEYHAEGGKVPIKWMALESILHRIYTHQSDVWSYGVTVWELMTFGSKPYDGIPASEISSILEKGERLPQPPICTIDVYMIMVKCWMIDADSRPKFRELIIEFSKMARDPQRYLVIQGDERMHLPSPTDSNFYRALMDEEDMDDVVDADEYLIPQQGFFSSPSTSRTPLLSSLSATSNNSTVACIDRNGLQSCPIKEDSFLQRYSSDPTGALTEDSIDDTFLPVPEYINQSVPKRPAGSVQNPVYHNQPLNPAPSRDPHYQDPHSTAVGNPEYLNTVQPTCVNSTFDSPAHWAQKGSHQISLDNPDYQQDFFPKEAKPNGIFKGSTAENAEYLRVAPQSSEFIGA
T1 sequence (P00533 25-1210 T790M/C797S/L858R): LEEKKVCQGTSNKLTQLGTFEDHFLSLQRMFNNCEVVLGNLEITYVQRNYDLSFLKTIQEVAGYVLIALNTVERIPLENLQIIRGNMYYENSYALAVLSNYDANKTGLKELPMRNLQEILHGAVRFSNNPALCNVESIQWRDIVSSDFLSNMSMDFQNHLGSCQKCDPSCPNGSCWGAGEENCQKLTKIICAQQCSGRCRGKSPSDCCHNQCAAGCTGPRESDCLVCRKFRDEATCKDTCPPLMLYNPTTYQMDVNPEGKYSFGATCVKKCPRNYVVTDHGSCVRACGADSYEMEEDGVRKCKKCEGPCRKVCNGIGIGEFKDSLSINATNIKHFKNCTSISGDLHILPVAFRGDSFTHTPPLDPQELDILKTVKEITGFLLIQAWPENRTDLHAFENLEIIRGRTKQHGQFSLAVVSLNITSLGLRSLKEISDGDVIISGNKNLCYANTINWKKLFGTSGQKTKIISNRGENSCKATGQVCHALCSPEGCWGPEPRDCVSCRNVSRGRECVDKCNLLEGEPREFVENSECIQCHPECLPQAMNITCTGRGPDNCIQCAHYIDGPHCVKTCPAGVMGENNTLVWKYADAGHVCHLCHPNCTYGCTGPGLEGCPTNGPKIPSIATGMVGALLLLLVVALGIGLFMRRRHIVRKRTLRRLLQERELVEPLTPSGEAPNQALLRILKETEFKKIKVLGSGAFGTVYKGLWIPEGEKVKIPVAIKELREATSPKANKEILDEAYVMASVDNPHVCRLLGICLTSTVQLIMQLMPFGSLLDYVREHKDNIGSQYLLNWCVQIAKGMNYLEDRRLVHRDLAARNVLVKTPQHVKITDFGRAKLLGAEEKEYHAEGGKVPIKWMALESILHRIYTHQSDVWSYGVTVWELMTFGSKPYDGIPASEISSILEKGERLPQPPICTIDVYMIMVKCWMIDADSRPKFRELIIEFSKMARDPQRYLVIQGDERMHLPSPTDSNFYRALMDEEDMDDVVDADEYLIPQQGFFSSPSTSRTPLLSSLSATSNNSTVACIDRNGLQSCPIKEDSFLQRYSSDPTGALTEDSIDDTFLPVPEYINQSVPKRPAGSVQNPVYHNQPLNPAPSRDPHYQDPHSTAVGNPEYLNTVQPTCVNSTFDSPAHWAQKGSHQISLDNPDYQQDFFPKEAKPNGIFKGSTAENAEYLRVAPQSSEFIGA
T2 sequence (P00533 25-1210 T790M/L858R): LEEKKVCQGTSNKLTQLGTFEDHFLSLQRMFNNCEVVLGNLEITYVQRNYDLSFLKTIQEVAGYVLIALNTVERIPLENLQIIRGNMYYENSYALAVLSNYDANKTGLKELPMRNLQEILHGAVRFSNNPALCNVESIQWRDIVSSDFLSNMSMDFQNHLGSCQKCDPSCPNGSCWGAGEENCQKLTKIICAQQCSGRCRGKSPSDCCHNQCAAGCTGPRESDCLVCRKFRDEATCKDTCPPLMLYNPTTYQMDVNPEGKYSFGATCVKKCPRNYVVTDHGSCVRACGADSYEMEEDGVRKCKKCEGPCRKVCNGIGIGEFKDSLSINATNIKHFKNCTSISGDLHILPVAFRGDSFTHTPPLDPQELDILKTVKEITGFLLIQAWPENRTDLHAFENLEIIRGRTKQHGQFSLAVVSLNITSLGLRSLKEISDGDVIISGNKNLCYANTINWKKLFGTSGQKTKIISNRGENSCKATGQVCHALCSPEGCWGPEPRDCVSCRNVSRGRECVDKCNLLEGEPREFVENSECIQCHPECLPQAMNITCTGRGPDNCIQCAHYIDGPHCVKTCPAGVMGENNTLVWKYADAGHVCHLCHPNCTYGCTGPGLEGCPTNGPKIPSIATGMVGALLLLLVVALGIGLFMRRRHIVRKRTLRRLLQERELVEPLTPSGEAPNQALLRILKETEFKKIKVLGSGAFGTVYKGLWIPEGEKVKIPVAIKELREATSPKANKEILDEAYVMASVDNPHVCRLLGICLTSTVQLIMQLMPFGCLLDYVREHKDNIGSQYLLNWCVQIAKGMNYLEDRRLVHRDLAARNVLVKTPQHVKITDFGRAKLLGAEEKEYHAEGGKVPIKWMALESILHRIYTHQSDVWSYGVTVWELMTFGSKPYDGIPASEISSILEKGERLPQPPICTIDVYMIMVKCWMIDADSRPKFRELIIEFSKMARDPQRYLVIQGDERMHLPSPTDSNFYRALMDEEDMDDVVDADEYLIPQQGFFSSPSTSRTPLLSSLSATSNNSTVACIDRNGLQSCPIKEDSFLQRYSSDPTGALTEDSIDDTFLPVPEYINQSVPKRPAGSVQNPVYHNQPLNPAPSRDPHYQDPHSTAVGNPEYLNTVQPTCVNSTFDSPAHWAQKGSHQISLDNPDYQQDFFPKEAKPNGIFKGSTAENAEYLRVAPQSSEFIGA

With `Cc1c(C#C[Si](C(C)C)(C(C)C)C(C)C)c2cnc3nc2n(c1=O)CC=CCOc1cccc(c1)N3`, for the setting “from Cc1c(C#C[Si](C(C)C)(C(C)C)C(C)C)c2cnc(Nc3cccc(O)c3)nc2n(C/C=C\CO)c1=O, ether bond, 13-membered ring, PPh3/DIAD, THF, 180.0 mM”, the ring closure, isolated yield was determined as 52%. With `CC1CCCCOc2cc(ccc2N2CCN(C)CC2)Nc2ncc3c(C#C[Si](C(C)C)(C(C)C)C(C)C)cc(=O)n1c3n2` (stereo not shown), the ring closure, isolated yield (from CC(O)CCCCOc1cc(Nc2ncc3c(C#C[Si](C(C)C)(C(C)C)C(C)C)cc(=O)[nH]c3n2)ccc1N1CCN(C)CC1, other bond, 14-membered ring, PPh3/DIAD, THF, 24.0 mM) turned out to be 19%. In the case of “3^4-(4-Methylpiperazin-1-yl)-1^5-((triisopropylsilyl)ethynyl)-1^7,1^8-dihydro-2,6-diaza-1(2,8)-pyrido[2,3-d]pyrimidina-3(1,3)-benzenacyclooctaphane-1^7,7-dione”, the ring closure, isolated yield (other bond, 13-membered ring, PPh3/DEAD, DCM, 130.0 mM) amounted to 38%. Turning to “(5^1S,5^3R)-1^4-(4-Methylpiperazin-1-yl)-3^5-((triisopropylsilyl)ethynyl)-3^7,3^8-dihydro-7-oxa-2-aza-3(2,8)-pyrido[2,3-d]pyrimidina-1(1,3)-benzena-5(1,3)-cyclopentanacycloheptaphan-3^7-one”, the ring closure, isolated yield (other bond, 14-membered ring, PPh3/DIAD, THF, 93.0 mM) worked out at 17%. `CC(C)[Si](C#Cc1cc(=O)n2c3nc(ncc13)Nc1ccc(N3CCN(C)CC3)c(c1)CC(=O)NCC2)(C(C)C)C(C)C` yielded a ring closure, isolated yield (from CC(C)[Si](C#Cc1cc(=O)[nH]c2nc(Nc3ccc(N4CCN(C)CC4)c(CC(=O)NCCO)c3)ncc12)(C(C)C)C(C)C, other bond, 13-membered ring, PPh3/DIAD, THF, 24.0 mM) of 43%.

“3^4-(4-methylpiperazin-1-yl)-1^5-((triisopropylsilyl)ethynyl)-1^7,1^8-dihydro-2,5-diaza-1(2,8)-pyrido[2,3-d]pyrimidina-3(1,3)-benzenacyclooctaphane-1^7,4-dione” showed a ring closure, isolated yield (other bond, 13-membered ring, PPh3/DIAD, THF, 43.7 mM) of 20%. “3^4-(4-methylpiperazin-1-yl)-1^5-((triisopropylsilyl)ethynyl)-1^7,1^8-dihydro-6-oxa-2-aza-1(2, 8)-pyrido[2,3-d]pyrimidina-3(1,3)-benzenacyclooctaphan-1^7-one” came in with a ring closure, isolated yield (other bond, 13-membered ring, PPh3/DEAD, THF, 82.8 mM) of 77%. On to “3^4-(4-Methylpiperazin-1-yl)-1^5-[2-(triisopropylsilyl)ethynyl]-1^7,1^8-dihydro-2,4-diaza-1(2,8)-pyrido[2,3-d]pyrimidine-3(1,3)-benzenacyclooctaphane-1^7,5-dione”, for which the ring closure, isolated yield (other bond, 13-membered ring, PPh3/DEAD, THF, 162.0 mM) is 62%.

Consider `CC(C)[Si](C#Cc1cc(=O)n2c3nc(ncc13)Nc1ccc(N3CCN(C)CC3)c(c1)S(=O)(=O)NCCC2)(C(C)C)C(C)C`, for which the ring closure, isolated yield (from CC(C)[Si](C#Cc1cc(=O)[nH]c2nc(Nc3ccc(N4CCN(C)CC4)c(S(=O)(=O)NCCCO)c3)ncc12)(C(C)C)C(C)C, other bond, 13-membered ring, PPh3/DIAD, THF, 24.3 mM) was found to be 15%. Take “3^4-(4-(2-Methoxyethyl)piperazin-1-yl)-1^5-((triisopropylsilyl)ethynyl)-1^7,1^8-dihydro-4-oxa-2-aza-1(2,8)-pyrido[2,3-d]pyrimidina-3(1,3)-benzenacyclooctaphan-1^7-one”: the ring closure, isolated yield (other bond, 13-membered ring, PPh3/DEAD, THF, 83.2 mM) came out at 49%. For the setting “other bond, 14-membered ring, PPh3/DEAD, THF, 134.0 mM”, “3^4-(4-Methylpiperazin-1-yl)-1^5-((triisopropylsilyl)ethynyl)-1^7,1^8-dihydro-4,7-dioxa-2-aza-1(2,8)-pyrido[2,3-d]pyrimidina-3(1,3)-benzenacyclononaphan-1^7-one” returned a ring closure, isolated yield of 29%. `CC(C)[Si](C#Cc1cc(=O)n2c3nc(ncc13)Nc1ccc(N3CCN(C)CC3)c(c1)OCC=CC2)(C(C)C)C(C)C` had a ring closure, isolated yield (from CC(C)[Si](C#Cc1cc(=O)[nH]c2nc(Nc3ccc(N4CCN(C)CC4)c(OC/C=C\CO)c3)ncc12)(C(C)C)C(C)C, other bond, 13-membered ring, PPh3/DIAD, THF, 24.0 mM) of 55%.

For `CC(C)[Si](C#Cc1cc(=O)n2c3nc(ncc13)Nc1cccc(c1)COCC=CC2)(C(C)C)C(C)C`, the ring closure, isolated yield (from CC(C)[Si](C#Cc1cc(=O)[nH]c2nc(Nc3cccc(COC/C=C\CO)c3)ncc12)(C(C)C)C(C)C, other bond, 14-membered ring, PPh3/DIAD, THF, 24.0 mM) came out at 56%.

Under “from COCCN1CCN(c2ccc(Nc3ncc4c(C#C[Si](C(C)C)(C(C)C)C(C)C)cc(=O)[nH]c4n3)cc2NC(=O)CCCO)CC1, other bond, 13-membered ring, PPh3/DEAD, THF, 25.7 mM”, `COCCN1CCN(c2ccc3cc2NC(=O)CCCn2c(=O)cc(C#C[Si](C(C)C)(C(C)C)C(C)C)c4cnc(nc42)N3)CC1` returned a ring closure, isolated yield of 42%.

Turning to `CC(C)[Si](C#Cc1cc(=O)n2c3nc(ncc13)Nc1cccc(c1)OC[C@H]1CC[C@H](C1)C2)(C(C)C)C(C)C`, the ring closure, isolated yield (from CC(C)[Si](C#Cc1cc(=O)[nH]c2nc(Nc3cccc(OC[C@H]4CC[C@@H](CO)C4)c3)ncc12)(C(C)C)C(C)C, other bond, 14-membered ring, PPh3/DIAD, THF, 183.0 mM) came out at 26%.

With `CC(C)[Si](C#Cc1cc(=O)n2c3nc(ncc13)Nc1ccc(N3CCN(C)CC3)c(c1)OCCCCC2)(C(C)C)C(C)C`, the ring closure, isolated yield (from CC(C)[Si](C#Cc1cc(=O)[nH]c2nc(Nc3ccc(N4CCN(C)CC4)c(OCCCCCO)c3)ncc12)(C(C)C)C(C)C, other bond, 14-membered ring, PPh3/DIAD, THF, 24.3 mM) came out at 22%. “4-Methyl-3^4-(4-methylpiperazin-1-yl)-1^5-((triisopropylsilyl)ethynyl)-1^7,1^8-dihydro-2,4-diaza-1(2,8)-pyrido[2,3-d]pyrimidina-3(1,3)-benzenacyclooctaphane-1^7,5-dione”: the ring closure, isolated yield (other bond, 13-membered ring, PPh3/DIAD, THF, 158.0 mM) is 38%. “1^6-methyl-3^4-(4-methylpiperazin-1-yl)-1^5-((triisopropylsilyl)ethynyl)-1^7,1^8-dihydro-4-oxa-2-aza-1(2,8)-pyrido[2,3-d]pyrimidina-3(1,3)-benzenacyclooctaphan-1^7-one” showed a ring closure, isolated yield (other bond, 13-membered ring, PPh3/DIAD, THF, 107.0 mM) of 56%.

Regarding `CC(C)[Si](C#Cc1cc(=O)n2c3nc(ncc13)Nc1cccc(c1)OCCC2)(C(C)C)C(C)C`, the ring closure, isolated yield (from CC(C)[Si](C#Cc1cc(=O)n(CCCO)c2nc(Nc3cccc(O)c3)ncc12)(C(C)C)C(C)C, ether bond, 12-membered ring, PPh3/DIAD, THF, 52.0 mM) came to 31%.

The compound `CC(C)[Si](C#Cc1cc(=O)n2c3nc(ncc13)Nc1ccc(N3CCCN(C)CC3)c(c1)NC(=O)CCC2)(C(C)C)C(C)C` had a ring closure, isolated yield (from CC(C)[Si](C#Cc1cc(=O)[nH]c2nc(Nc3ccc(N4CCCN(C)CC4)c(NC(=O)CCCO)c3)ncc12)(C(C)C)C(C)C, other bond, 13-membered ring, PPh3/DEAD, THF, 31.7 mM) of 41%. For `C#Cc1c(-c2c(Cl)cccc2Cl)c(=O)n(C)c2nc(Nc3ccc(N(C)CCN(C)C)cc3)ncc12` [Example 134, 6-(2,6-dichlorophenyl)-2-[(4-{[2-(dimethylamino)ethyl](methyl)amino}phenyl)amino]-5-ethynyl-8-methylpyrido[2,3-d]pyrimidin-7-one], the IC50 is greater than 3000 nM in data set [1], greater than 3000 nM in data set [2], greater than 10000 nM in data set [3] and greater than 3000 nM in data set [4]. As to `C#Cc1cc(=O)n(C)c2nc(Nc3ccc(N4CCN(C)CC4)c(S(=O)(=O)NCC4CCCC4)c3)ncc12` [Example 218], the IC50 in data set [1] was greater than 3000 nM; in data set [2], 1000 to 3000 nM; in data set [3], less than 1000 nM; in data set [4] it was greater than 3000 nM. Take `C#Cc1cc(=O)n2c3nc(ncc13)Nc1ccc(N3CCN(CCOC)CC3)c(c1)OCCCC2` [Example 241, 1^5-Ethynyl-3^4-(4-(2-methoxyethyl)piperazin-1-yl)-1^7,1^8-dihydro-4-oxa-2-aza-1(2,8)-pyrido[2,3-d]pyrimidina-3(1,3)-benzenacyclooctaphan-1^7-one]: the concentration for half-maximal inhibition (IC50) is less than 500 nM in data set [1], less than 500 nM in data set [2], less than 1000 nM in data set [3] and 500 to 1000 nM in data set [4].

As for `C#Cc1cc(=O)n(-c2ccccc2)c2nc(Nc3ccc(N4CCN(C)CC4)c(C)c3)ncc12` [Example 12, 5-Ethynyl-2-{[3-methyl-4-(4-methylpiperazin-1-yl)phenyl]amino}-8-phenylpyrido[2,3-d]pyrimidin-7-one], the IC50 was less than 500 nM in data set [1], less than 500 nM in data set [2], less than 1000 nM in data set [3] and greater than 3000 nM in data set [4]. As for `C#Cc1c(C)c(=O)n(Cc2cccnc2)c2nc(Nc3ccc(N4CCN(C)CC4)cc3)ncc12` [Example 115, 5-ethynyl-6-methyl-2-{[4-(4-methylpiperazin-1-yl)phenyl]amino}-8-(pyridin-3-ylmethyl)pyrido[2,3-d]pyrimidin-7-one], the IC50 was 1000 to 3000 nM in data set [1], 500 to 1000 nM in data set [2], less than 1000 nM in data set [3] and 1000 to 3000 nM in data set [4].

Broadly, the IC50 is the midpoint of a concentration-inhibition curve.

The values above are taken from US20260137703A1, “2-AMINO-PYRIDO[2,3-D]PYRIMIDIN-7(8H)-ONE AND 7-AMINO-1-PYRIMIDO[4,5-D]PYRIMIDIN-2(1 H)-ONE DERIVATIVES AS EGFR INHIBITORS FOR THE TREATMENT OF CANCER” (Cancer Research Technology Limited, priority 2022, published 2026).
